Assay results taken from US20240043473A1, “NOOTROPIC PEPTIDES FOR TREATING LYSOSOMAL STORAGE DISEASES” (Phoenix Nest Inc., priority 2021, published 2024).
“Also recorded” adds a separate entry of the source. No end group written: not given here.

Experiments:
[1] = tested on: Hgsnat-Geo and Hgsnat^P304L MPS IIIC mice; experiment: Novel Object Recognition test; type: in vivo, mouse
Procedure: Method: Novel object recognition test that studies working memory of mice by measuring their ability to discriminate a familiar from a novel object. AVP6 was administered intranasally at a daily dose 50 μg/kg (5 μl/nostril) for 10 consecutive days before the experimental day.
Novel object recognition test was used for assessing short-term recognition memory. Mice were placed individually in a 44×33×20 cm (length×width×height) testing chamber with white Plexiglas walls for 10 min habituation period and returned to their home cage. The next day, mice were placed in the testing chamber for 10 min with two identical objects (red plastic towers, 3×1.5×4.5 cm), returned to the home cages, and 1 hour later, placed back into the testing chamber in the presence of one of the original objects and one novel object (a blue plastic base, 4.5×4.5×2 cm) for 10 min. After each mouse, the test arena as well as the plastic objects were cleaned with 70% ethanol to avoid olfactory cue bias. The discrimination index (DI) was calculated as the difference of the exploration time between the novel and old object divided by total exploration time.
(§1) Starting from 3 weeks of age, WT C57B16 and homozygous Hgsnat^P304L male and female mice were randomly divided in treatment and control groups (6-13 mice/sex/genotype/treatment; see Table I). The control group was daily administered with saline (5 μL to each nostril), while for the treatment group, saline was supplemented with 125 µg of AVP6/mL, which would result in a dose of approximately 50 μg/kg BW/day. The peptide formulation was prepared once, aliquoted and kept frozen at −80° C. until use. At 4 months, all mice were studied by EPM, OF, YM and NOR behavioral tests. Administration of the drug or saline was continued through the days on which the assays were conducted. Then approximately at 5 months 4-5 mice in each group were sacrificed. Their blood plasma was collected, and their tissues were either snap-frozen or fixed and cryopreserved to analyze CNS pathology as described above. For the remaining mice, treatment was continued and their behaviour was studied again at the age of 6 months using OF. NOR and YM tests. Starting from the age of 8 months, Hgsnat^P304L treated and untreated mice were daily studied for the signs of urinary retention. When such signs were detected, the mice were studied by ERG and sacrificed within 1-2 days. […]
The ability of the peptide to improve the memory deficits was tested in the 4-months-old Hgsnat-Geo mice using the Novel Object Recognition (NOR) test that studies working memory of mice by measuring their ability to discriminate a familiar object a novel one. […] Immediately after the test, mice were sacrificed and the levels of mature BDNF protein were measured in their hippocampi by immunoblot.

BDNF = experiment: Mature BDNF levels in dissected hippocampi by Western blot; type: in vivo, mouse
Procedure: Method: AVP6 was administered intranasally at 50 μg/kg (5 μl/nostril) for 10 consecutive days. After sacrifice, changes in the levels of BDNF, a protein involved in long-term synaptic potentiation and memory consolidation, in the dissected hippocampi of mice were analyzed by Western blots.
The cerebral cortical tissues were homogenized in five volumes of RIPA lysis buffer (50 mM Tris-HCl pH 7.4, 150 mM NaCl, 1% NP-40, 0.25% sodium deoxycholate, 0.1% SDS, 2 mM EDTA, 1 mM PMSF), containing protease and […] inhibitor cocktails (Sigma, cat#4693132001 and 4906837001), using a Dounce homogenizer. The homogenates were kept on ice for 30 min and centrifuged at 13,000 g at 4° C. for 25 min. The supernatant was centrifuged again at 13,000 g for 15 min, the protein concentration in resulting lysates was measured, and 20 μg of protein from each sample was separated by SDS-PAGE on 4-20% precast polyacrylamide gel (Bio-Rad, 4561096). Western blot analyses were performed according to standard protocols using Anti-BDNF and α-tubulin (1:2000, mouse, DSHB) antibodies. Equal protein loading was confirmed by Ponceau S staining and normalized for tubulin immunoreactive band. Detected bands were quantified using ImageJ 1.50i software (National Institutes of Health, Bethesda, MD, USA).

MIP1α = experiment: Expression of inflammatory cytokine in brain (real-time qPCR); type: in vivo, mouse; conditions: chronic daily 50 μg/kg BW; Hgsnat^P304L mice at 5 months; vs saline
Procedure: RNA was isolated from snap-frozen brain, kidney and liver tissues using the TRIzol reagent (Invitrogen) and reverse-transcribed using the iScript™ Reverse Transcription Supermix (Bio RAD #1708840) according to the manufacturer's protocol, qPCR was performed using a LightCycler® 96 Instrument (Roche) and SsoFast™ EvaGreen® Supermix with Low ROX (Bio RAD #1725211) according to the manufacturer's protocol. RLP32 mRNA was used as a reference control.
as §1, with “Their blood plasma was collected, and their tissues were either snap-frozen or fixed and cryopreserved to analyze CNS pathology as described above. For the remaining mice, treatment was continued and their behaviour was studied again at the age of 6 months using OF. NOR and YM tests. Starting from the age of 8 months, Hgsnat^P304L treated and untreated mice were daily studied for the signs of urinary retention.” left out

[2] = Body weight measured weekly during chronic administration; type: in vivo, mouse; conditions: chronic intranasal administration; Hgsnat^P304L or WT mice
Procedure: WT, and Hgsnat^P304L mice were randomly assigned to the treatment and control groups. The cohort size (18 mice/sex/treatment) was calculated based on mean variability of replicates in previous behavioral tests in Hgsnat^P304L mice to detect a ˜40% difference between means (power=0.8). Treatment was started at weaning (P21) which corresponds to neurodevelopmental human age of 3 years, the time of disease onset for majority of Sanfilippo patients. Since most patients are diagnosed post-symptomatically, this age would most likely become the treatment starting point for the most of patients. […] To test if chronic administration of the peptide results in major metabolic changes, the mouse body weight was measured weekly.

[3] = mouse, in vivo
Procedure: WT C57B16 4-month-old male mouse was dosed intranasally with 10 μl of 50 mM AVP6 in saline (5 μl/nostril). One hour after dosing, the mouse was anesthetized with sodium pentobarbital, and 500 μl of blood collected by cardiac puncture. Mouse was then sacrificed by cranial dislodgement and its brain and visceral organs extracted. Tissues and blood plasma were homogenized in acetonitrile (1:4, tissue/solvent ratio). The extracts were spiked with heavy isotope-labelled (Phe U-^13C9; U-^15N) AVP6 peptide as an internal standard, and analyzed by targeted LC-MS/MS, using parallel reaction monitoring on Orbitrap Exploris 480 instrument.
Peptide pharmaco-kinetics was determined by evaluation of AVP6 levels in CNS, blood and peripheral tissues at different time points (1-48 h) after intranasal delivery in the WT mice. The entire mouse brain was cut in four sections, rostral to caudal and assessed for biodistribution of AVP6 by targeted LC-MS/MS using parallel reaction monitoring. For quantification, samples were spiked with isotopically labeled (Phe U-^13C9; U-^15N) AVP6 peptide as an internal standard. Peptide levels were also measured in peripheral (liver, kidney, spleen) tissues and in blood to provide insights into peptide biodistribution and degradation rates.

## AVP6: N-terminally acetylated Semax, a nootropic peptide having the amino acid sequence of MEHFPGP (SEQ ID NO:1) (Ac-MEHFPGP)
[1]; chronic 50 μg/kg BW/day, Hgsnat^P304L mice at 6 months
  short-term memory deficit, Novel Object Recognition: partially rescues deficits in spatial and short-term memory
[1]; chronic daily intranasal 50 μg/kg BW from 3 weeks, Hgsnat^P304L mice at 4 months
  short-term memory deficit (discrimination and recognition indexes), Novel Object Recognition: rescues deficits in spatial and short-term memory; also recorded: show the rescue of all above deficits
[1]; intranasal 50 μg/kg daily for 10 consecutive days, 4-month-old Hgsnat-Geo mice
  working (short-term) memory deficit: discrimination index and recognition index, Novel Object Recognition: significantly recovered memory deficits; also recorded: rescues working memory deficits; also recorded: This deficit is rescued
[1]; intranasal 50 μg/kg daily for 10 days, WT mice vs saline
  discrimination index and recognition index in WT mice, Novel Object Recognition: trend for an increase
BDNF; acute (24 h) intranasal administration, MPSIIIC mice
  mature BDNF levels: significantly increased
BDNF; intranasal 50 μg/kg daily for 10 days, 4-month-old Hgsnat-Geo mice
  mature BDNF levels in hippocampus: significantly increased; also recorded: increases BDNF levels; also recorded: partially restored levels; also recorded: partially rescued
MIP1α
  expression levels of inflammatory cytokine MIP1α in the brain: reduced expression levels
[2]
  body weight and body weight gain, treated vs untreated: No difference in body weight and body weight gain
[3]
  time the peptide level in the brain remained above the estimated acting concentration: 17 h
